Results on 3 compounds are retold here after ChEMBL document CHEMBL4699446, “Hydroxy-neo-Clerodanes and 5,10-seco-neo-Clerodanes from Salvia decora” (J Nat Prod, 2020).

The target of experiment [1] is T1, Tyrosine-protein phosphatase non-receptor type 1 (Homo sapiens) (UniProt P18031).
T1 sequence (whole entry): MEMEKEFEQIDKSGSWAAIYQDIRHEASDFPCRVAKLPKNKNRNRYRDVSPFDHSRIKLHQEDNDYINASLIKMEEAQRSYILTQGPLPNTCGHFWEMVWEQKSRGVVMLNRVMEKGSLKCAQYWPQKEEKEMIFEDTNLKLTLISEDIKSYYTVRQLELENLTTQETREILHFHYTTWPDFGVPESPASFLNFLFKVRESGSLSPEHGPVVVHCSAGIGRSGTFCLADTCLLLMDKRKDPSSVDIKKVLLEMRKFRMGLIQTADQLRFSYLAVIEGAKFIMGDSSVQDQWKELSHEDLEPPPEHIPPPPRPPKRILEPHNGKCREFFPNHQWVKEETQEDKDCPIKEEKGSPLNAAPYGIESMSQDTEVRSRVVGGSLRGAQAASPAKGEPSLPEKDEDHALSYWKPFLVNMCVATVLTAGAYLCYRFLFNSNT
The experiment can be described thus: Inhibition of wild type human HIS6-tagged PTP1B (1 to 400 residues) expressed in Escherichia coli Rosetta (DE3) pLysS cells using p-NPP substrate at 0.38 to 1 mM preincubated for 10 mins followed dby substrate addition and measured after 20 mins relative to control. To be noted: dose mM 0.38-1, time 30.0 min.

The target in experiment [2] is T1, Tyrosine-protein phosphatase non-receptor type 1 (Homo sapiens). The experiment can be described thus: Binding affinity to human PTP1B (1 to 405 residues) at 1:2 protein-ligand ratio.
Experiment [3] is described as follows: Inhibition of Saccharomyces cerevisiae alpha-glucosidase using pNPG as substrate preincubated for 10 mins followed by substrate addition after 20 mins.
Experiment [4] concerns the target T1, Tyrosine-protein phosphatase non-receptor type 1 (Homo sapiens).
Description: Binding affinity to wild type human HIS6-tagged PTP1B (1 to 400 residues) expressed in Escherichia coli Rosetta (DE3) pLysS by tryptophan-tyrosine residues based spectrometric method

The source made the active and inactive calls. The calls are words filed in the database; no cut-off is given here.

By inhibition is commonly meant the drop in the measured response relative to a control, in per cent. Consider `CC(=O)O[C@H]1CC2=C(/C=C\C=C\[C@@]3(C)C[C@H](c4ccoc4)OC(=O)[C@@H]13)C(=O)OC2`, for which the inhibition entry in experiment [1] was “Active”.

Take `CC(C)[C@@H](CC[C@@H](C)[C@H]1CC[C@H]2[C@@H]3[C@H](O)C[C@H]4C[C@@H](NCCCNCCCCNCCCN)CC[C@]4(C)[C@H]3CC[C@]12C)OS(=O)(=O)O`: in experiment [2], the Ka was 3.3 10^5/M.

Usually IC50 stands for the concentration that gives 50% inhibition. A lower IC50 goes with greater potency in that assay. Consider `C[C@H]1[C@H](C)CC[C@]2(C(=O)O)CC[C@]3(C)C(=CC[C@@H]4[C@@]5(C)CC[C@H](O)C(C)(C)[C@@H]5CC[C@]43C)[C@H]12` [URSOLIC ACID], for which, in experiment [3], the IC50 worked out at 7.5 µM. The same compound came in with an inhibition in experiment [1] of 50%. The Ka in experiment [4] was 1.3 10^4/M.
